Legend:
[1] = test system: myocardial infarction in adult rats; assay: Scar volume (trichrome stain) after myocardial infarction; type: in vivo, rat
Protocol: To determine whether p38 inhibition/FGF1 stimulation can induce cardiomyocyte proliferation in vivo and whether it has a positive effect on cardiac function after cardiac injury we created myocardial infarctions (MI) in adult rats (250 g) by coronary artery ligation. The p38 inhibitor SB203580 HCl or its vehicle, saline, were injected intraperitoneal every three days for the first month of the study. FGF1 or its carrier BSA was injected mixed with self-assembling peptides once into the infarct border zone immediately after coronary artery ligation. We injecting a total of 80 μl of 400 ng/ml FGF1, given at 3 different injection sites, into 400 mg of infarcted myocardium estimated to deliver a FGF 1 concentration to the cardiomyocytes of approximately 50 to 100 ng/ml. Animals were analyzed 24 hours, 2 weeks, and 3 month after surgery. […]
To determine if p38 inhibition and FGF1 stimulation have an effect on infarct size we determined scar volume using trichrome stain. […]
Scar formation was determined as fibrotic area/(fibrotic+non-fibrotic area) based on all sections. The thinning index is a ratio of the amount of wall thinning in the infarct normalized to the thickness of the septum and is calculated by dividing the minimal infarct wall thickness with maximal septal wall thickness (2 weeks: section 1 to 4, 3 month: section 1 to 6 from base).

[2] = test system: adult cardiomyocytes; assay: Ki67 staining of adult cardiomyocytes; type: cell-based, rat; conditions: 12 days of stimulation
Protocol: Animal experiments were performed in accordance with guidelines of Children's Hospital, Boston and UCLA. Ventricular cardiomyocytes from fetal (E19), 2-day-old (P2) and adult (250-350 g) Wistar rats (Charles River) were isolated as described with minor modifications (Engel et al. 1999; Engel et al. 2003). After digestion of fetal or neonatal hearts (0.14 mg/ml collagenase II (Invitrogen), 0.55 mg/ml pancreatin (Sigma)) cells were cultured in DMEM/F12 (GIBCO) containing 3 mM Na-pyruvate, 0.2% BSA, 0.1 mM ascorbic acid (Sigma), 0.5% Insulin-Transferrin-Selenium (100×), penicillin (100 U/ml), streptomycin (100 μg/ml), and 2 mM L-glutamine (GIBCO). […]
Staining was performed as described (Supplemental Table S3) (Engel et al. 1999; Engel et al. 2003). Immune complexes were detected with ALEXA 350, ALEXA 488 or ALEXA 594-conjugated secondary antibodies (1:200, Molecular Probes). […]
Eighteen to 40 hearts of 3 different litters were used for quantitative analyses of maximal areas. For immunofluorescence analyses 1,500 fetal or neonatal cardiomyocytes were counted. For adult cardiomyocyte analyses in vitro the following number of cells were counted: 500-2,000 for BrdU or Ki67, 9,000-25,000 for H3P, and 12,000-45,000 for aurora B. For in vivo MKK3bE and p38α knockout experiments 2 different litters were used. We counted 1,500-2,000 cells in each apex, left and right ventricle per heart. […]

## FGF1: growth factor FGF1 (R&D Systems)
[1]; 2 weeks
  scar size (scar volume): significantly reduced
[1]; 3 month
  scar size (scar volume): significantly reduced
[2]
  Ki67-positive adult cardiomyocytes: 1.7±0.5%

From US20060281791A1, “Methods of increasing proliferation of adult mammalian cardiomyocytes through p38 map kinase inhibition” (CHILDREN'S MEDICAL CENTER CORPORATION, priority 2005, published 2006)
